# Measured values taken from EP1243581A1, “Pyridinium compounds useful for the treatment of AGE-related diseases” (Torrent Pharmaceuticals Ltd, priority 2001, dated 2002).
# Target: T1, AGE-BSA (Bos taurus, UniProt P02769)
# T1 construct: Bovine serum albumin (fraction V) (BSA); from tissue; host or cells: bovine serum (fraction V albumin)
# Assay: In-vitro screening for AGE-breaking activity (ELISA on 16 weeks AGE-BSA)
# Assay type: biochemical, bovine
# Conditions: Concentration 2.5 mM; 10µg/ml 16 weeks AGE-BSA, 37°C, 24 hours
# Method: • Materials: • Bovine serum albumin (fraction V) (BSA) • Glucose, analytical grade • Phosphate buffered saline (PBS) • Equipment: • Microplate ELISA Reader - Spectramax Plus (Molecular Devices, USA) • Microplate washer, (Bio -Tec Instruments, USA) • pH meter Methods of experiment: Elisa (Enzyme Linked Immunosorbent Assay) 160 mg/ml of protein, bovine serum albumin, BSA and 1.6M glucose sugar were dissolved in phosphate buffered saline, PBS. Sodium azide was added at 0.02% concentration as a preservative. The solution was filtered asceptically through a 0.22 µM filter and kept for aging at 37°C for 16 weeks. After 16 weeks the solution was dialyzed against PBS, aliquoted and stored at - 20°C.
# To determine the AGE breaking activity, 10µg/ml of the 16 weeks AGE-BSA was incubated with different concentrations of the test compounds at 37°C for 24 hours and AGE breaking activity of the test compounds by ELISA was determined. […] Different concentrations of 16 weeks AGE-BSA were coated on a microtitre plate as standard. Each concentration is coated in triplicates. • 2. The test samples were coated on microtitre plate at a concentration of 5 ng. to 20 ng per well in triplicates. • 3. The plate was incubated at 37°C for one hour. • 4. After incubation the plate was washed with PBST (PBS with 0.05% Tween 20). • 5. Blocking with 5% skimmed milk in PBS at 37°C for one hour was done. • 6. The plate was washed with PBST. • 7. Primary antibody against AGE-BSA was added and the plate is incubated at 37°C for one hour. • 8. The plate was washed with PBST • 9. Secondary antibody anti rabbit HRPO (Horse-Radish Per Oxidase) conjugate was added and the plate is incubated at 37°C for one hour. • 10. The plate was washed with PBST. • 11. Colour development with OPD (orthophenylenediamine dihydrochloride) and hydrogen peroxide was done. • 12. OD (optical density) at (450nm reading - 620nm reading) was measured after incubation at 37°C for 15 minutes with Microplate ELISA Reader.
# The breaker activity of the compounds were determined by the following formula: % Breaker activity =(OD450-620 Control - OD450-620 Test)/(OD450-620 Control)x 100 [formula]
# T1 sequence (P02769 25-607): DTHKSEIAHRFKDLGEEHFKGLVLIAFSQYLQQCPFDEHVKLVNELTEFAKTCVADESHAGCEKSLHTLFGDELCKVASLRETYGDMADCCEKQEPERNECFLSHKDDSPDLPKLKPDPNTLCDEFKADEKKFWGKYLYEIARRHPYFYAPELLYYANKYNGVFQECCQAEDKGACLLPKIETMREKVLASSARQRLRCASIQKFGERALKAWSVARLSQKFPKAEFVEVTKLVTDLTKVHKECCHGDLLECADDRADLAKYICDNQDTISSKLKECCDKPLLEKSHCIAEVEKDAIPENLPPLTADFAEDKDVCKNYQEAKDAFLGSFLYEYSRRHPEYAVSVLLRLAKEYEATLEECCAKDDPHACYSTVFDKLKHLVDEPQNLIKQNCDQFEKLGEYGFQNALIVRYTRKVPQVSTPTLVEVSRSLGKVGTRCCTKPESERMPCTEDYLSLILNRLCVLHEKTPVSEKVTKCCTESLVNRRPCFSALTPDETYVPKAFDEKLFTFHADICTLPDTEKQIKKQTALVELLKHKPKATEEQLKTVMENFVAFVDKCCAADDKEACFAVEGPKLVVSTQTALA
row,% breakage of AGE-BSA crosslinks at 2500 µM [%],SMILES
1,29.4,"CS(=O)(=O)NNC(=O)c1cc(Br)c[n+](CC(=O)c2cccs2)c1 [Compound 35, 1-(2-thien-2'-yl-2-oxoethyl)-3-(methanesulfonyl hydrazinocarbonyl)-5-bromo pyridinium bromide]"

# Same assay, conditions: Concentration 10 mM; 10µg/ml 16 weeks AGE-BSA, 37°C, 24 hours
row,% breakage of AGE-BSA crosslinks at 10000 µM [%],SMILES
1,14,"O=C(NNC(=O)c1ccc[n+](CC(=O)c2ccco2)c1)c1ccc[n+](CC(=O)c2ccco2)c1 [Compound 14, N, N' - bis [3-carbonyl-1-(2-furan-2'-yl-2-oxoethyl)pyridinium] hydrazine dibromide]"
2,92.6,"O=C(NNS(=O)(=O)C(F)(F)F)c1ccc[n+](CC(=O)c2cccs2)c1 [Compound 50, 1-(2-thien-2'-yl-2-oxoethyl)-3-(trifluoromethanesulfonyl hydrazinocarbonyl) - pyridinium bromide]"
3,37,"O=C(C[n+]1cccc(C(=O)NCCOC(=O)c2ccccc2)c1)Nc1ccccc1 [Compound 5, 1-(2-phenylamino-2-oxoethyl)-3-((benzoyloxy)ethylaminocarbonyl) pyridinium chloride]"
4,32.4,"COCCNC(=O)c1cc(Br)c[n+](CC(=O)c2cccs2)c1 [Compound 29, 1-(2-thien-2'-yl-2-oxoethyl)-3-((2-methoxyethyl)aminocarbonyl)-5-bromo pyridinium chloride]"

# Further lines, the molecule ahead of its results:
row,SMILES,% breakage of AGE-BSA crosslinks at 10000 µM [%]
1,"Cc1ccc(C(=O)C[n+]2cccc(C(=O)NNC(=O)c3ccc[n+](CC(=O)c4ccc(C)s4)c3)c2)s1 [Compound 40, N,N'-bis[3-carbonyl-1-(2-(5-methyl-thien-2-yl)-2-oxoethyl)pyridinium] hydrazine dichloride]",82
2,"CCOC(=O)NNC(=O)c1ccc[n+](CC(=O)c2cccs2)c1 [Compound 36, 1-(2-thien-2'-yl-2-oxoethyl)-3-(ethoxycarbonyl hydrazinocarbonyl) pyridinium bromide]",33.4

# Same assay, conditions: Concentration 25 mM; 10µg/ml 16 weeks AGE-BSA, 37°C, 24 hours; read-out: % Breakage
row,inhibition at 25000 µM [%],SMILES
1,90,"O=C(C[n+]1cccc(C(=O)NCCOC(=O)c2ccccc2)c1)Nc1ccccc1 [Compound 5, 1-(2-phenylamino-2-oxoethyl)-3-((benzoyloxy)ethylaminocarbonyl) pyridinium chloride]"

# Same assay, conditions: read-out: % Breakage
SMILES,inhibition at 10000 µM [%],inhibition at 5000 µM [%]
"CCOC(=O)C1CSCN1C(=O)C[n+]1cccc(C(=O)NNS(C)(=O)=O)c1 (stereo not drawn) [Compound 43, 1-(2-(4-carbethoxy-thiazolidin-3-yl)-2oxoethyl)-3-(methanesulfonyl hydrazinocarbonyl) pyridinium chloride]",25.1,–
"O=C(C[n+]1ccc(C(=O)NCCOC(=O)c2ccccc2)cc1)Nc1ccccc1 [Compound 48, 1-(2-phenylamino-2-oxoethyl)-4-[2-(benzoyloxy)ethylaminocarbonyl] pyridinium chloride]",19.1,–
"CS(=O)(=O)NNC(=O)c1ccc[n+](CC(=O)N2CCC(Cc3ccccc3)CC2)c1 [Compound 33, 1-(2-(4-benzylpiperidin-1-yl)-2-oxoethyl)-3-(methanesulfonyl hydrazinocarbonyl) pyridinium chloride]",20.9,–
"CC(C)NC(=O)C[n+]1cccc(C(=O)NNS(C)(=O)=O)c1 [Compound 25, 1-(2-isopropylamino-2-oxoethyl)-3-(2-methylsulfonylhydrazinocarbonyl) -pyridinium chloride]",10.8,–
"COCCNC(=O)c1ccc[n+](CC(=O)c2ccc(Cl)cc2Cl)c1 [Compound 20, 1-(2',4'-dichloro-phenyl-2-oxoethyl)-3-(2-methoxyethylaminocarbonyl)-pyridinium bromide]",–,17.7
"Cc1ccc(C(=O)C[n+]2cccc(C(=O)NNS(C)(=O)=O)c2)s1 [Compound 45, 1-(2-(5-methyl-thien-2-yl)-2-oxoethyl)-3-(methanesulfonyl hydrazinocarbonyl) pyridinium chloride]",25.2,–
"CS(=O)(=O)NNC(=O)c1ccc[n+](CC(=O)c2cc([N+](=O)[O-])cs2)c1 [Compound 46, 1-(2-(4-nitro-thien-2-yl)-2-oxoethyl)-3-(methanesulfonyl hydrazinocarbonyl) pyridinium bromide]",60.9,–
